# Measurements: PubChem BioAssay AID2060624 (Molecular Pharmacology Branch, DTP, NCI, 2025)
# Tested on: 217524-143-R1-J4-PDC spheroids with HUVEC/MSC, viability
# Assay: Anticancer human tumor 217524-143-R1-J4-PDC patient-derived pancreatic carcinoma cell line growth inhibition [CLK]
# Conditions: for IC50: curve of first compound; for viability, T/C: stronger effect = lower value
# Text: A high-throughput screen of multi-cell type tumor spheroids was designed to identify active combinations of […] and targeted small molecules. Complex spheroids include a stromal component modeled by human endothelial cells (HUVEC) and fibroblasts modeled by human mesenchymal stem cells (MSCs). The concentration ranges selected for each drug and investigational agent were based upon clinically achievable concentrations if the clinical Cmax of the agent was known.
# Compounds. The drugs and investigational agents: cirtuvivint (SM08502; NSC835563), CC-671 (NSC850746), vemurafenib (NSC761431), tapotoclax (NSC804041), sotorasib (NSC818433), adagrasib (NSC831453), MRTX-1133 (NSC836407), BAY2416964 (NSC825713), copanlisib (NSC816437), inavolisib (NSC800729), abemaciclib (NSC768073), osimertinib (NSC779217), entinostat (NSC756642), eltanexor (KPT-8602, NSC794443), venetoclax (NSC766270), ceralasertib (NSC777638), bortezomib (NSC756655), olaparib (NSC753686), talazoparib (NSC767125), alisertib (NSC759677), peposertib (NSC802822), gemcitabine (NSC613327), 5-fluorouracil (NSC19893), SN-38 (NSC673596), oxaliplatin (NSC266046), paclitaxel (NSC125973), and doxorubicin (NSC123127), were obtained from the National Cancer Institute (NCI) Developmental Therapeutics Program Chemical Repository. The FDA-approved anticancer drug set is available from the Developmental Therapeutics Program at https://dtp.cancer.gov/organization/dscb/obtaining/available plates.htm. […] The stock solutions were prepared in dimethyl sulfoxide (DMSO, Sigma-Aldrich, St. Louis, MO, cat. D2650), except for the platinum complexes which were prepared in saline (Quality Biological, Gaithersburg, MD, cat. 114-055-101), at 800-fold the tested concentration and stored at -70 degrees C prior to their use. All drugs and investigational agents were tested over a range starting from a high concentration at or near the clinical Cmax and decreasing in half-log increments. If the clinical Cmax for an agent had not been determined, the highest concentration tested was 10 microM.
# Cell Culture. All cells were maintained in an incubator at 37 degrees C and 5% CO2 with 95% humidity. The PDC lines were cultured according to standard operating procedures established by the NCI PDMR. Briefly, all PDCs were thawed and cultured in Matrigel-coated flasks prepared with a working solution of 1X Ham's F-12 nutrient mix, without supplementation (Invitrogen, Waltham, MA, cat. 11765054), 100 U/mL penicillin-streptomycin (Invitrogen, cat. 15140122), and 2.5% Matrigel (Corning Inc., Corning, NY, cat. 354248) for the first three passages. The 947758-054-R-J2-PDC line was cultured in 6B/Colon 1A media, which includes advanced DMEM/F-12 (Thermo Fisher Scientific, cat. 12634028), 10 mM HEPES (Thermo Fisher Scientific, cat. 15630080), 1X GlutaMAX supplement (Thermo Fisher Scientific, cat. 35050061), 0.1 mg/mL primocin (InvivoGen, cat. ant-pm-2), 10% defined fetal bovine serum, heat inactivated (HyClone Laboratories Inc., cat. SH30070.03HI), 1.25 mM N-Acetyl-L-cysteine (Sigma-Aldrich, cat. A9165), 10 mM nicotinamide (Sigma-Aldrich, cat. N0636), 1X B-27 supplement (Thermo Fisher Scientific, cat. 17504044), 1X N-2 supplement (Thermo Fisher Scientific, cat. 17502048), and 10 microM Y-27632 dihydrochloride (Tocris Bioscience, cat. 1254). The 876862-298-R-J1-PDC was cultured in 6E media, which includes all 6B/Colon 1A media components plus 50% L-WRN conditioned media (ATCC, cat. CRL-3276), 50 ng/mL recombinant human EGF recombinant protein (hEGF; Thermo Fisher Scientific, cat. PHG0311), 10 ng/mL recombinant human fibroblast growth factor 10 (hGFG-10; PeproTech, cat. 100-26), 1 ng/mL recombinant human fibroblast growth factor 2 (hFGF-2; PeproTech, cat. 100-18B), and 1 µM prostaglandin E2 (PGE2; Tocris, cat. 2296). The 227483-062-R1-J1-PDC line was cultured in Panc media, containing all 6E components except hFGF-2, with the addition of 500 nM SB-431542 (Selleckchem, cat. S1067) and 10 nM gastrin (Tocris, cat. 3006). […]
# 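Note: spheroids exposed to agents for seven days before reading.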
# 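Throughout, for viability, T/C: 100% = DMSO vehicle control viability.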
compound,measurement,setting,value
C=CC(=O)Nc1cc(Nc2nccc(-c3cn(C)c4ccccc34)n2)c(OC)cc1N(C)CCN(C)C + CN1CCN(c2cc(C(=O)Nc3cc4cc(-c5cnn(C)c5)ccc4cn3)ccn2)CC1,IC50,second compound 0.0316 µM,127 nM
same,IC50,second compound 0.1 µM,32.5 nM
same,IC50,second compound 0.316 µM,< 0.949 nM
same,IC50,second compound 1 µM,< 0.949 nM
same,IC50,second compound 3.16 µM,< 0.949 nM
same,IC50,second compound 10 µM,< 0.949 nM
same,"viability, T/C","second compound 0.0316 µM, first compound 0.000949 µM",79.8%
same,"viability, T/C","second compound 0.0316 µM, first compound 0.003 µM",63.2%
same,"viability, T/C","second compound 0.0316 µM, first compound 0.00949 µM",82.2%
same,"viability, T/C","second compound 0.0316 µM, first compound 0.03 µM",72.5%
same,"viability, T/C","second compound 0.0316 µM, first compound 0.0949 µM",56%
same,"viability, T/C","second compound 0.0316 µM, first compound 0.3 µM",32.5%
same,"viability, T/C","second compound 0.1 µM, first compound 0.000949 µM",57.5%
same,"viability, T/C","second compound 0.1 µM, first compound 0.003 µM",61.2%
same,"viability, T/C","second compound 0.1 µM, first compound 0.00949 µM",61.9%
same,"viability, T/C","second compound 0.1 µM, first compound 0.03 µM",47.2%
same,"viability, T/C","second compound 0.1 µM, first compound 0.0949 µM",39.5%
same,"viability, T/C","second compound 0.1 µM, first compound 0.3 µM",24.8%
same,"viability, T/C","second compound 0.316 µM, first compound 0.000949 µM",25.4%
same,"viability, T/C","second compound 0.316 µM, first compound 0.003 µM",27.2%
same,"viability, T/C","second compound 0.316 µM, first compound 0.00949 µM",22.9%
same,"viability, T/C","second compound 0.316 µM, first compound 0.03 µM",22.5%
same,"viability, T/C","second compound 0.316 µM, first compound 0.0949 µM",19%
same,"viability, T/C","second compound 0.316 µM, first compound 0.3 µM",12.6%
same,"viability, T/C","second compound 1 µM, first compound 0.000949 µM",2.17%
same,"viability, T/C","second compound 1 µM, first compound 0.003 µM",2.28%
same,"viability, T/C","second compound 1 µM, first compound 0.00949 µM",1.87%
same,"viability, T/C","second compound 1 µM, first compound 0.03 µM",1.61%
same,"viability, T/C","second compound 1 µM, first compound 0.0949 µM",1.64%
same,"viability, T/C","second compound 1 µM, first compound 0.3 µM",0.9%
same,"viability, T/C","second compound 3.16 µM, first compound 0.000949 µM",1.11%
same,"viability, T/C","second compound 3.16 µM, first compound 0.003 µM",0.99%
same,"viability, T/C","second compound 3.16 µM, first compound 0.00949 µM",1.06%
same,"viability, T/C","second compound 3.16 µM, first compound 0.03 µM",0.81%
same,"viability, T/C","second compound 3.16 µM, first compound 0.0949 µM",1.04%
same,"viability, T/C","second compound 3.16 µM, first compound 0.3 µM",0.71%
same,"viability, T/C","second compound 10 µM, first compound 0.000949 µM",0.22%
same,"viability, T/C","second compound 10 µM, first compound 0.003 µM",0.25%
same,"viability, T/C","second compound 10 µM, first compound 0.00949 µM",0.25%
same,"viability, T/C","second compound 10 µM, first compound 0.03 µM",0.26%
same,"viability, T/C","second compound 10 µM, first compound 0.0949 µM",0.27%
same,"viability, T/C","second compound 10 µM, first compound 0.3 µM",0.25%
Nc1ccccc1NC(=O)c1ccc(CNC(=O)OCc2cccnc2)cc1 + CN1CCN(c2cc(C(=O)Nc3cc4cc(-c5cnn(C)c5)ccc4cn3)ccn2)CC1,IC50,second compound 0.0316 µM,3750 nM
same,IC50,second compound 0.1 µM,1980 nM
same,IC50,second compound 0.316 µM,< 31.6 nM
same,IC50,second compound 1 µM,< 31.6 nM
same,IC50,second compound 3.16 µM,< 31.6 nM
same,IC50,second compound 10 µM,< 31.6 nM
same,"viability, T/C","second compound 0.0316 µM, first compound 0.0316 µM",84.2%
same,"viability, T/C","second compound 0.0316 µM, first compound 0.1 µM",84.9%
same,"viability, T/C","second compound 0.0316 µM, first compound 0.316 µM",80.2%
same,"viability, T/C","second compound 0.0316 µM, first compound 1 µM",66.5%
same,"viability, T/C","second compound 0.0316 µM, first compound 3.16 µM",57.4%
same,"viability, T/C","second compound 0.0316 µM, first compound 10 µM",23.1%
same,"viability, T/C","second compound 0.1 µM, first compound 0.0316 µM",65.5%
same,"viability, T/C","second compound 0.1 µM, first compound 0.1 µM",61.1%
same,"viability, T/C","second compound 0.1 µM, first compound 0.316 µM",63.5%
same,"viability, T/C","second compound 0.1 µM, first compound 1 µM",60.8%
same,"viability, T/C","second compound 0.1 µM, first compound 3.16 µM",42.6%
same,"viability, T/C","second compound 0.1 µM, first compound 10 µM",19.9%
same,"viability, T/C","second compound 0.316 µM, first compound 0.0316 µM",18.9%
same,"viability, T/C","second compound 0.316 µM, first compound 0.1 µM",20.2%
same,"viability, T/C","second compound 0.316 µM, first compound 0.316 µM",27.3%
same,"viability, T/C","second compound 0.316 µM, first compound 1 µM",39.2%
same,"viability, T/C","second compound 0.316 µM, first compound 3.16 µM",28.9%
same,"viability, T/C","second compound 0.316 µM, first compound 10 µM",5.46%
same,"viability, T/C","second compound 1 µM, first compound 0.0316 µM",1.9%
same,"viability, T/C","second compound 1 µM, first compound 0.1 µM",1.63%
same,"viability, T/C","second compound 1 µM, first compound 0.316 µM",1.82%
same,"viability, T/C","second compound 1 µM, first compound 1 µM",1.83%
same,"viability, T/C","second compound 1 µM, first compound 3.16 µM",0.8%
same,"viability, T/C","second compound 1 µM, first compound 10 µM",0.38%
same,"viability, T/C","second compound 3.16 µM, first compound 0.0316 µM",0.79%
same,"viability, T/C","second compound 3.16 µM, first compound 0.1 µM",1.03%
same,"viability, T/C","second compound 3.16 µM, first compound 0.316 µM",0.98%
same,"viability, T/C","second compound 3.16 µM, first compound 1 µM",0.64%
same,"viability, T/C","second compound 3.16 µM, first compound 3.16 µM",0.44%
same,"viability, T/C","second compound 3.16 µM, first compound 10 µM",0.54%
same,"viability, T/C","second compound 10 µM, first compound 0.0316 µM",0.13%
same,"viability, T/C","second compound 10 µM, first compound 0.1 µM",0.21%
same,"viability, T/C","second compound 10 µM, first compound 0.316 µM",0.25%
same,"viability, T/C","second compound 10 µM, first compound 1 µM",0.2%
same,"viability, T/C","second compound 10 µM, first compound 3.16 µM",0.23%
same,"viability, T/C","second compound 10 µM, first compound 10 µM",0.3%
